Test results published in ChEMBL document CHEMBL1201862, “PubChem BioAssay data set” (2004).
Active and inactive are the calls of the source.

Assays:
Leucine aminopeptidase = target: T1, Leucine aminopeptidase (Plasmodium falciparum 3D7, UniProt Q8IL11); test: P. falciparum M17LAP inhibitors, primary screen, biochemical, fluorogenic H-Leu-NHMec substrate, 1536-well (AID 1619); format: functional
T1 sequence (Q8IL11 whole entry): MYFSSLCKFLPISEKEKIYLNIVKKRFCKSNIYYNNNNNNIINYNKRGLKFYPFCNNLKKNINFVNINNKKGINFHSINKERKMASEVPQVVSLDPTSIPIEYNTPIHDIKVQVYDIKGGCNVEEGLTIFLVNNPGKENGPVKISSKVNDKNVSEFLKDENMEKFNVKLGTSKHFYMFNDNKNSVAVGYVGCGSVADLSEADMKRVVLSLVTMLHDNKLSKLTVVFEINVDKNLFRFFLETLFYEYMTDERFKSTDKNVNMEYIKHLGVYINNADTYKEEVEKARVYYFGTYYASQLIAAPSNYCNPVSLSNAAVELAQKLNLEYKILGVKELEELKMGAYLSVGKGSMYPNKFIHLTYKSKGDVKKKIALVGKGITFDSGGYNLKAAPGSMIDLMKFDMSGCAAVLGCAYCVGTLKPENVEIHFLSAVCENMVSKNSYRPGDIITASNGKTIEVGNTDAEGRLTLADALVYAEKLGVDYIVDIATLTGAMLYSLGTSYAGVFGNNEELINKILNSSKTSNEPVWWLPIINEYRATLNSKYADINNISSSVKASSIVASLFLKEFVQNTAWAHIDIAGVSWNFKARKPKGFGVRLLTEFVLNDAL

[1] = target: Peroxisome proliferator-activated receptor gamma/Nuclear receptor coactivator 1 (Homo sapiens, UniProt P37231); test: (§1) TR-FRET dose response biochemical High Throughput Screening assay for agonists of the steroid receptor coactivator 1 (SRC-1) recruitment by the peroxisome proliferator-activated receptor gamma (PPAR gamma): non-selective agonists. [Related pubchem assays (depositor defined):AID1300, AID1808, AID504735, AID631]; format: protein assay
[2] = target: Peroxisome proliferator-activated receptor gamma/Nuclear receptor coactivator 3 (Homo sapiens, UniProt P37231); test: as §1, with “3 (SRC-3)” for “1 (SRC-1)”, “assays: 1301 (Confirmation screen.), 1048 (Primary screen.)]” for “assays (depositor defined):AID1300, AID1808, AID504735, AID631]”; format: functional
[3] = target: Peroxisome proliferator-activated receptor gamma/Nuclear receptor coactivator 2 (Homo sapiens, UniProt P37231); test: TR-FRET dose response biochemical High Throughput Screening assay for agonists of the steroid receptor coactivator 2 (SRC-2) recruitment by the peroxisome proliferator-activated receptor gamma (PPAR gamma): non-selective agonists. [Related pubchem assays: 1297, 1032 ]; format: functional
[4] = target: T2, Polyadenylate-binding protein 1 (Homo sapiens, UniProt P11940); test: PABP1 MLLE–PAM2 interaction inhibitors, dose response, miRNA deadenylation inhibitor project, biochemical, fluorescence polarization, Cy5-PAM2 peptide, secondary (AID 602260); format: functional; settings: read-out: IC50_Mean
[5] = target: T2, Polyadenylate-binding protein 1; test: PABP1 MLLE–PAM2 binding inhibitor potency, dose response, biochemical, fluorescence polarization, FITC-PAM2 peptide (AID 602259); format: functional; settings: read-out: IC50_Mean
[6] = target: T3, Voltage-gated N-type calcium channel alpha-1B subunit/Amyloid beta A4 precursor protein-binding family A member 1 (Homo sapiens, UniProt Q00975+Q02410); format: protein assay
[7] = target: T3, Voltage-gated N-type calcium channel alpha-1B subunit/Amyloid beta A4 precursor protein-binding family A member 1; format: protein assay; remark: listed apart in the source
[8] = target: T4, High affinity choline transporter 1 (Homo sapiens, UniProt Q9GZV3); test: CHT inhibitors, dose response, cell-based, 5-point CRC, membrane potential dye (AID 504840); format: functional
T4 sequence (Q9GZV3 whole entry): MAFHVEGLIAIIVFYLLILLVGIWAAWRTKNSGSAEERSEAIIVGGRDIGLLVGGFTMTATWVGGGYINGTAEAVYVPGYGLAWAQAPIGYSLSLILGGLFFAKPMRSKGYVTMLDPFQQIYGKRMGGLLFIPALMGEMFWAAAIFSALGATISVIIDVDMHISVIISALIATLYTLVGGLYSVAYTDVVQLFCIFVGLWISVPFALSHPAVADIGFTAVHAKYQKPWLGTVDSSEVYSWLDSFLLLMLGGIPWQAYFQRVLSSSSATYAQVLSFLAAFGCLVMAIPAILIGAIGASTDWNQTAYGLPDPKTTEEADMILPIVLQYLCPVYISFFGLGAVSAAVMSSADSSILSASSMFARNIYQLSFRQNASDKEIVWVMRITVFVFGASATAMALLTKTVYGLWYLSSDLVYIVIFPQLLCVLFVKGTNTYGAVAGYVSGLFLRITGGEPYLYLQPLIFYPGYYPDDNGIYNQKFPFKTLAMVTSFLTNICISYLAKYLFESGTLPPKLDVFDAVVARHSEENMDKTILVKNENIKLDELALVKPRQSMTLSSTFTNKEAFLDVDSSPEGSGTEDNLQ

Nonstructural protein 1 = Nonstructural protein 1 (Influenza A virus, UniProt Q194T2); format: functional, Influenza A virus (A/California/07/2009(H1N1))
H9c2 = test: cells; format: functional, cell-based; settings: Rattus norvegicus, H9c2, Myocardium;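 note: confirmatory concentration-response retest of ultra-high-throughput screening hits for modulation of myocardial damage; cell death induced by hydrogen peroxide oxidative stress; compound pretreatment for 60 min then peroxide exposure for 2 h; potency is for protecting the cells against peroxide damage rather than for killing them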

T3 sequence (Q00975 whole entry): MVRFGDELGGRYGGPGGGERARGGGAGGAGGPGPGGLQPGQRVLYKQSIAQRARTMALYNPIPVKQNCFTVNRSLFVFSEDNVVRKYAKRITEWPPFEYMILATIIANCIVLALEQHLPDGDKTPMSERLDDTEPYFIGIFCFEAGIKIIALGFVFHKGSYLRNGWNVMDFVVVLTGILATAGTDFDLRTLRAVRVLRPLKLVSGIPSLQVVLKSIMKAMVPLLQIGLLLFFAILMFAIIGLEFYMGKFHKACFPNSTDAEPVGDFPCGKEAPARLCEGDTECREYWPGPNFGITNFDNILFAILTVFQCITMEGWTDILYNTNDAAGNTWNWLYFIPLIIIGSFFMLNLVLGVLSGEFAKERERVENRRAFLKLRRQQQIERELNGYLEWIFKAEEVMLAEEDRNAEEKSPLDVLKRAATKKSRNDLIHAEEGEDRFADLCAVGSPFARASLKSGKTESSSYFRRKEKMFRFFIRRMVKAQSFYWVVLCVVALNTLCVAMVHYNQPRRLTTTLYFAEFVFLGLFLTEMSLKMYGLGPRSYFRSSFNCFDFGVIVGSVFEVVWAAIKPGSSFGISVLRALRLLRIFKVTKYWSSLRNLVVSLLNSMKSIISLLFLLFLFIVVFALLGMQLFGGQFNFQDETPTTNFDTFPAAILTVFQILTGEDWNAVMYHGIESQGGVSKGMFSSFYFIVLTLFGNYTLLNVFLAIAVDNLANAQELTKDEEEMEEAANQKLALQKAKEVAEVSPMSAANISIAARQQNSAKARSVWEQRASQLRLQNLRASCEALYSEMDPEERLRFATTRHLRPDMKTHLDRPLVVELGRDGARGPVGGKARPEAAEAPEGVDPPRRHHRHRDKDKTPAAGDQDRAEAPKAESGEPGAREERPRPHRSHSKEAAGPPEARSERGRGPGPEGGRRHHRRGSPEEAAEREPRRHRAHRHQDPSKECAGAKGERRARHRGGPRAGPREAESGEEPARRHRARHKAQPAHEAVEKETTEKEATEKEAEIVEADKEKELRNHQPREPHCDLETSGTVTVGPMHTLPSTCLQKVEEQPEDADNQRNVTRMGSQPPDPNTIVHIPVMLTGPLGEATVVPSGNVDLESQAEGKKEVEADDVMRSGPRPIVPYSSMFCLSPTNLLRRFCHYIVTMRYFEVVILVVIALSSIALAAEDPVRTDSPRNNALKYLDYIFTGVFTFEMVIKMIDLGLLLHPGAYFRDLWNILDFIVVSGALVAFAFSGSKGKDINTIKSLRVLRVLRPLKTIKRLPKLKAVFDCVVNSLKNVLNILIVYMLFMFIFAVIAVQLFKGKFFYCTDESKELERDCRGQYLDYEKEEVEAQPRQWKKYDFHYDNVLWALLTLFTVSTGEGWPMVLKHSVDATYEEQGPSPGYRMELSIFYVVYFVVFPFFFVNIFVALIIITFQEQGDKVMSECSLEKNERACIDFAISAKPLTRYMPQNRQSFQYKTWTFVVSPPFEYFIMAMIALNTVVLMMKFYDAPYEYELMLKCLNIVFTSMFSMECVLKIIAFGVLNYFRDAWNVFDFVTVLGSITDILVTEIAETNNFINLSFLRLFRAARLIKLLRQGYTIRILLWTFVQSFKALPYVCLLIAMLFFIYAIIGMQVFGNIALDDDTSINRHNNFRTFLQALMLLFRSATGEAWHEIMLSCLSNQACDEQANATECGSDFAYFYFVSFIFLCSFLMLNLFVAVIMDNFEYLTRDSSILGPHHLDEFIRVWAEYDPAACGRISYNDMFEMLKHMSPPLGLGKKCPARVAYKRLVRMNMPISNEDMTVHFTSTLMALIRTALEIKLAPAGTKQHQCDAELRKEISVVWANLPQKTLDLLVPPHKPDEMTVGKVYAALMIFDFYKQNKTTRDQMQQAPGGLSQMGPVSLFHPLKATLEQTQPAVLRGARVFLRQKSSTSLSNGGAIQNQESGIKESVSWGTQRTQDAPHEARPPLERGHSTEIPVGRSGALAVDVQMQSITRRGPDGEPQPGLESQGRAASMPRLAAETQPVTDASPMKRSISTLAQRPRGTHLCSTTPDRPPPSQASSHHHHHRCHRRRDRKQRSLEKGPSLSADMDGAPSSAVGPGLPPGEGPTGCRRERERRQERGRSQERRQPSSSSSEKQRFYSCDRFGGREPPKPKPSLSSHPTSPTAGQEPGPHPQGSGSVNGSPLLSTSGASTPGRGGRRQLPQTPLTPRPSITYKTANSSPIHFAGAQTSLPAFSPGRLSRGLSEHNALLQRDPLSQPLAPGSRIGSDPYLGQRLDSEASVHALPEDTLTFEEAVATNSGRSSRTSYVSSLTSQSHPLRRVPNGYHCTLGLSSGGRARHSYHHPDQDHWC
T3 sequence (Q02410 whole entry): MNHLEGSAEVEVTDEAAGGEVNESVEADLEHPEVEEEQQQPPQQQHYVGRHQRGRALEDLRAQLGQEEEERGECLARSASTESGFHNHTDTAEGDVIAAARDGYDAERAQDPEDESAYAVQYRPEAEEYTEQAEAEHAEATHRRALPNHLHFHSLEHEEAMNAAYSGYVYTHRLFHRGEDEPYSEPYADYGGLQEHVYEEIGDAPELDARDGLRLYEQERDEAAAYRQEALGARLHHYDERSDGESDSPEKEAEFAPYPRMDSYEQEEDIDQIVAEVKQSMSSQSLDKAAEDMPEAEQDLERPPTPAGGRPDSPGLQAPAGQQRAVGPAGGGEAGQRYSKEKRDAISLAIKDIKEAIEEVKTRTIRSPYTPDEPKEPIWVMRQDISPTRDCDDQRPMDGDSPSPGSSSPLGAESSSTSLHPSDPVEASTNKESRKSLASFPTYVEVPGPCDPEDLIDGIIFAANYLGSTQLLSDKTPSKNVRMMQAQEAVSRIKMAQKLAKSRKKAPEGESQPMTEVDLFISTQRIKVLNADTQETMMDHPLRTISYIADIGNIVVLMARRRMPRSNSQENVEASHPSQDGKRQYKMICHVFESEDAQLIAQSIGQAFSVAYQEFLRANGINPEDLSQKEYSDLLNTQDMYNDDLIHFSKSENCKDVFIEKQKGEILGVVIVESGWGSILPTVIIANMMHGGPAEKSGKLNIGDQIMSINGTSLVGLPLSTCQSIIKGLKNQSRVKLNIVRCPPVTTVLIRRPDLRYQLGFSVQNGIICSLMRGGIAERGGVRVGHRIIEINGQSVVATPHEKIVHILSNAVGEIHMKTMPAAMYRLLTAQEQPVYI
Chain of Nonstructural protein 1 (Q194T2 whole entry): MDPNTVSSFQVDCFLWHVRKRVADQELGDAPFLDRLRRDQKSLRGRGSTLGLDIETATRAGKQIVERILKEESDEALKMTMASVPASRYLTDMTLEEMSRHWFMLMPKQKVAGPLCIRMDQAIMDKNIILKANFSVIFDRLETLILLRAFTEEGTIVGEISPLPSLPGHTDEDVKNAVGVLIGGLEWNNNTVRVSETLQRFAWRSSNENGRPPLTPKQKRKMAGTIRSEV
T2 sequence (P11940 whole entry): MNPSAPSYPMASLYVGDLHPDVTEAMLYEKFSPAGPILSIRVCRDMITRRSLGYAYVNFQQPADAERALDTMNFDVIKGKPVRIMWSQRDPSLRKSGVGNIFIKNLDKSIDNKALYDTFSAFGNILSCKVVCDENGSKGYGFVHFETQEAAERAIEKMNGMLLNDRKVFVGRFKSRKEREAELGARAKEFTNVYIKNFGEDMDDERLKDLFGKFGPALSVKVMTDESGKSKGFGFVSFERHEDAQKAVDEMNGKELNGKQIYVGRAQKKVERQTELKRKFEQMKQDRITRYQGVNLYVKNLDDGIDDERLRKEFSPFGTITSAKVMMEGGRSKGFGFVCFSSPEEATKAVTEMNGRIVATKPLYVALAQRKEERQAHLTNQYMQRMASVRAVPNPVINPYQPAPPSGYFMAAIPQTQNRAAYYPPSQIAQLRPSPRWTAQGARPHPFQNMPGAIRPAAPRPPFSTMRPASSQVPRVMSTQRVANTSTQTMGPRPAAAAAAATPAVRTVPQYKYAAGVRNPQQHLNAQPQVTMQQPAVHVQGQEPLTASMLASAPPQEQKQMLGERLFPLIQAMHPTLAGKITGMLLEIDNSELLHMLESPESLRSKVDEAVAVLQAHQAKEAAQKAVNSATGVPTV

Row | Compound | IC50 [6] | IC50 [7] | IC50 [8] | further results
1 | Cc1sc(NC(=S)Nc2ccc(F)cc2)c(C(N)=O)c1C |  |  |  | IC50 (Leucine aminopeptidase): 53.1 µM (active); EC50 [1]: 9.36 µM (active); EC50 [2]: > 79.4 µM (not active); EC50 [3]: 9.42 µM (active); IC50 [4]: > 66 µM (inactive); IC50 [5]: > 66 µM (inactive)
2 | O=C(COC(=O)CNC(=O)c1ccc(-c2ccccc2)cc1)NCc1ccco1 | 5.35 µM (active) | 49.5 µM (active) |  | 
3 | O=C(Nc1ccc(F)cc1)C1=CC(=O)N2CCN=C2S1 | 10.7 µM (active) | > 50 µM (inactive) |  | 
4 | O=S(=O)(c1ccccc1F)N1CCN(CCc2ccccc2)CC1 |  |  | 5.45 µM (active) | 
5 | CCN(C(=O)CN1C(=O)S/C(=C\C=C\c2ccccc2)C1=O)C1CCS(=O)(=O)C1 (configuration not stated) | > 56.8 µM (not active) | > 50 µM (inactive) |  | 
6 | Cc1cc(=O)oc2cc(NC(=O)c3cccc(Br)c3)ccc12 | 5.32 µM (active) | > 50 µM (inactive) |  | 
7 | Cc1ccc(S(=O)(=O)/N=C2\C(=O)c3ccccc3C(O)=C2N2CCN(c3ccccc3F)CC2)cc1 |  |  |  | IC50 (Nonstructural protein 1): 79.2 µM (active)
8 | CCCn1c2ccccc2c2cnn(CC(=O)OC)c(=O)c21 |  |  | 15.8 µM (active) | 
9 | O=C(NCc1cccnc1)c1ccc(COc2ccccc2Cl)o1 |  |  | 14.5 µM (active) | 
10 | COc1ccccc1OCC(=O)N/N=C/c1cccc2cccnc12 |  |  |  | IC50 (Nonstructural protein 1): 13.5 µM (active); IC50 (H9c2): 10.9 µM (active)
11 | Oc1ccc(/C=N/NC(=S)Nc2cccnc2)cc1O |  |  |  | IC50 (Leucine aminopeptidase): 49.6 µM (active)
12 | Fc1ccccc1CCNc1c2c(nc3ncnn13)CCCC2 |  |  | 13.8 µM (active) | 
